In patent US7253154B2, “Substituted thiazolopyrimidines as xanthine oxidase inhibitors” (Nippon Chemiphar Co., Ltd., priority 2001, dated 2007):

Experiments:
[1] = target: T1, Cow milk Xanthine Oxidase (Bos taurus, UniProt P80457); test: Xanthine oxidase inhibiting action, in vitro test (oxidation of xanthine, absorbance OD 290); format: biochemical; details: Cow milk xanthine oxidase (Roche), xanthine substrate, 50 mM phosphate buffer pH 7.5, 37° C., 15 min
T1 construct: Cow milk Xanthine Oxidase (Roche); purchased Roche; host or cells: cow milk
Description: Pharmacological Experiment 1 (In Vitro Test)
1. Preparation of Test Sample
250 gL of each of the solutions of the test compound having different concentrations was added to 1 mL of a solution of Xanthine (SIGMA, 300 µM) in the 50 mM phosphor buffer (pH 7.5). The mixture was then pre-incubated at 37° C. for 10 min. Subsequently, to the pre-incubated mixture was added […] of Cow milk Xanthine Oxidase (Roche) diluted with the 50 mM phosphate buffer (pH 7.5) to give a solution of 30 mU concentration. The mixture was then kept at 37° C. for 15 min for performing a reaction. The reaction was terminated by addition of 1N hydrochloric acid. Subsequently, the absorbance ([…]) was measured by means of a spectrophotometer (HITACHI U-2000), to obtain the inhibition ratio.
The inhibition ratio was calculated according to the following formula: Inhibition ratio(%)=[1−(B−C)/(A−C)]×100
B: absorbance measured in the case of using test compound

[2] = target: T2, xanthine oxidase (Mus musculus, UniProt Q00519); test: In vivo test: uric acid value in plasma of mouse after oral administration; details: ICR mouse, 3 mg/10 mL/kg single oral administration, blood collected after one hour
T2 construct: ICR mouse (Japan Charles River Co., Ltd., 6 W) was employed as test animal; from tissue; host or cells: living ICR mouse (whole animal; plasma uric acid measured)
Description: The xanthine oxidase inhibiting action was further confirmed in vivo tests by measuring the uric acid concentration in a plasma obtained from mouse into which the compound of the invention had been orally administered. See Example 1-B, Table 21.
Pharmacological Experiment 2 (In Vivo Test)
1. Test Animals, and Grouping
ICR mouse (Japan Charles River Co., Ltd., 6 W) was employed as test animal. One group comprised mice, and a vehicle control group was set for each experiment.
2. Preparation and Administration of the Test Compound
The test compound was suspended in aqueous […] methylcellulose solution to for administration.
Dosage is 3 mg/10 mL/kg for each of the control groups and all test groups. The administration was made by single oral administration.
3. Procedure of Experiment
The test compound was orally administered once, and the whole blood was collected from main artery in the presence of heparin after one hour. From the collected whole blood was separated plasma in the conventional manner, and the plasma was subjected to measurement of uric acid value by the enzyme method by means of an automatic analytical apparatus (HITACHI 7060E).
The inhibition ratio was calculated according to the following formula: Inhibition ratio(%)=[…]
A: average uric acid value in plasma of the group into which the test compound was administered.
B: average uric acid value in plasma of the vehicle control group

T1 sequence (P80457 whole entry): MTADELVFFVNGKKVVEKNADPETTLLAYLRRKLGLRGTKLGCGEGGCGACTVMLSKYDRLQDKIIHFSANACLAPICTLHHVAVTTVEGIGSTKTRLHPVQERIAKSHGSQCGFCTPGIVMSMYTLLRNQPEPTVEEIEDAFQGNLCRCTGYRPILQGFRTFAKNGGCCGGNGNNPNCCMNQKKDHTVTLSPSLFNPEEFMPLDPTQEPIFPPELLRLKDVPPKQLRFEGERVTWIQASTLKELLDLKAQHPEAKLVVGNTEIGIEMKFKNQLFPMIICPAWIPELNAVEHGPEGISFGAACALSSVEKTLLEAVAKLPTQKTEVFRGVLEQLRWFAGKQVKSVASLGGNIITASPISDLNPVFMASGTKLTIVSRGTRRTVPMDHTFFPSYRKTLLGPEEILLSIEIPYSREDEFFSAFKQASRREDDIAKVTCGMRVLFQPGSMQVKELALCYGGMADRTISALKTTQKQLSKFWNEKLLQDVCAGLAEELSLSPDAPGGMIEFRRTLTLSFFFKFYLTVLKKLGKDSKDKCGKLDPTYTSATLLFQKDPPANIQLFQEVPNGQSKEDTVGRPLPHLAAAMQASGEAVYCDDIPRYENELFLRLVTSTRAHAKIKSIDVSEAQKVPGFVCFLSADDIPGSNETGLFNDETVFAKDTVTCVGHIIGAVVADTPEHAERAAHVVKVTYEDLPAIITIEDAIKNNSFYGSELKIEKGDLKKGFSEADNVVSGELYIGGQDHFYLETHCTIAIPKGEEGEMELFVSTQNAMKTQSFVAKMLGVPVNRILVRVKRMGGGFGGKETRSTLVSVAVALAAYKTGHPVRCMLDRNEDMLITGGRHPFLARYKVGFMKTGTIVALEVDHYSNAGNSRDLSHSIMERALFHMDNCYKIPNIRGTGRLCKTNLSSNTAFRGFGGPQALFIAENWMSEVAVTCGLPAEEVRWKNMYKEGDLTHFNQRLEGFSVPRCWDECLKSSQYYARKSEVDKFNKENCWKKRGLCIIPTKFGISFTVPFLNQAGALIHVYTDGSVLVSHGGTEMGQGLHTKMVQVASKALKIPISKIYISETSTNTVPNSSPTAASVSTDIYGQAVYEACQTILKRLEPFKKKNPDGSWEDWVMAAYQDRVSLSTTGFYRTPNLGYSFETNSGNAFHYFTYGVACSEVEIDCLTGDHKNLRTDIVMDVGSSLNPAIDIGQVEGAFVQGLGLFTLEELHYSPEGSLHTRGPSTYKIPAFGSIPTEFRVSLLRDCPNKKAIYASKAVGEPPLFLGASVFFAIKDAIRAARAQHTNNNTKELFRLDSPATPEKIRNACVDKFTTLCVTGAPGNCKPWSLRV
T2 sequence (Q00519 whole entry): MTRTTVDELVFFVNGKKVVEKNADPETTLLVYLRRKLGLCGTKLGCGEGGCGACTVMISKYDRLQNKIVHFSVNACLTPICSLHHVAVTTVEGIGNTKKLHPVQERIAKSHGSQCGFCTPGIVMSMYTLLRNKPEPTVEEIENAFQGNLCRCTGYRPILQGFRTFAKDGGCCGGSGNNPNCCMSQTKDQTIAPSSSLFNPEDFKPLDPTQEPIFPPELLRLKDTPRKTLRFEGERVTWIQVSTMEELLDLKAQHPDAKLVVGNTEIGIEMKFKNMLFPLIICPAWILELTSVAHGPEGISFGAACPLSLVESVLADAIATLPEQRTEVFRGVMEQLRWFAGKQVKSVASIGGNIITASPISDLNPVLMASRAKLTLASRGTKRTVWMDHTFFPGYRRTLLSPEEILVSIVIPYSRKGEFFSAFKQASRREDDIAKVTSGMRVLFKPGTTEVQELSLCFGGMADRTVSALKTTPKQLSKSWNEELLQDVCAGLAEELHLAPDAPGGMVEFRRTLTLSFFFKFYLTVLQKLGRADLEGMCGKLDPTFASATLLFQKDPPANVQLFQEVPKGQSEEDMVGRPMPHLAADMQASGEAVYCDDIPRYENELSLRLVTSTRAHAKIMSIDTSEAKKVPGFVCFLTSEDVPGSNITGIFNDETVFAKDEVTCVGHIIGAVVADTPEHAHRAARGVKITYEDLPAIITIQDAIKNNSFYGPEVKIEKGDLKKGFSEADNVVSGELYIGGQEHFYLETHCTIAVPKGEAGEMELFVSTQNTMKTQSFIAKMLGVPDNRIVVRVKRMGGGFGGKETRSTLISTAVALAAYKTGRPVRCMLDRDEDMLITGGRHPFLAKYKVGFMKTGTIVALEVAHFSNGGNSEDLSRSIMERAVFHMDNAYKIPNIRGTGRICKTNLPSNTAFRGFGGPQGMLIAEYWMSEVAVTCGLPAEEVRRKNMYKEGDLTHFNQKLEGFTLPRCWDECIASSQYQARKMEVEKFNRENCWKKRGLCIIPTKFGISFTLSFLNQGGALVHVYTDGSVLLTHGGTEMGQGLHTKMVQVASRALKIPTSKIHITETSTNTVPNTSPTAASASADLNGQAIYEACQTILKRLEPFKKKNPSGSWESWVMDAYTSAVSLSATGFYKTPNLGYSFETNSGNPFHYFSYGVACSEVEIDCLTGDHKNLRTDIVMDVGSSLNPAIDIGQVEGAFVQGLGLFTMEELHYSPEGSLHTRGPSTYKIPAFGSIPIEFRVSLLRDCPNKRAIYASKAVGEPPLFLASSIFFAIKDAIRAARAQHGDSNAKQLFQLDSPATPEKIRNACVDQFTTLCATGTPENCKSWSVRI

SMILES | IC50 [1] | Inhibition ratio (plasma uric acid value vs vehicle control group) [2]
CC(C)COc1ccc(-c2nc3ncnc(Cl)c3[nH]2)cc1[N+](=O)[O-] [Example 1-A, 8-(4-Isobutoxy-3-nitrophenyl)-6-chloropurine] | 63.2 nM | –
CC(C)COc1ccc(-c2nc3ccncc3[nH]2)cc1[N+](=O)[O-] [Example 9, 2-(4-Isobutoxy-3-nitrophenyl)-3H-imidazo[4,5-c]pyridine] | 58.4 nM | –
CC(C)COc1ccc(-c2nc3c(N)ncnc3o2)cc1[N+](=O)[O-] [Example 1-B, 6-amino-8-(4-isobutoxy-3-nitrophenyl)oxazolo[4,5-d]pyrimidine] | 44.8 nM | 60.7%
CC(C)COc1ccc(-c2nc3ncnc(N)c3[nH]2)cc1[N+](=O)[O-] [Example 6, 6-Amino-8-(4-isobutoxy-3-nitrophenyl)purine] | 75.9 nM | 63.8%
CC(C)COc1ccc(-c2nc3ncnc(O)c3[nH]2)cc1[N+](=O)[O-] [Example 2, 8-(4-Isobutoxy-3-nitrophenyl)-6-hydroxypurine] | 11.1 nM | –
CC(C)COc1ccc(-c2nc3cccc(C(=O)O)c3o2)cc1[N+](=O)[O-] [Example 8, 2-(4-Isobutoxy-3-nitrophenyl)benzoxazole-7carboxylic acid] | 18.6 nM | 56.8%
CC(C)COc1ccc(-c2nc3cccc(O)c3s2)cc1C#N [Example 12, 2-(3-Cyano-4-isobutyloxyphenyl)-7-hydroxy 1,3-benzothiazole] | 161 nM | –
CC(C)COc1ccc(-c2nc3c(C(=O)O)cccc3[nH]2)cc1C#N [Example 11, 2-(3-Cyano-4-isobutyloxyphenyl)benzimidazole-7-carboxylic acid] | 22.3 nM | 51.4%
CC(C)COc1ccc(-c2nc3cccc(C(=O)O)c3s2)cc1C#N [Example 10, 2-(3-Cyano-4-isobutyloxyphenyl)-1,3-benzothiazole-7-carboxylic acid] | 50 nM | 56.1%
CC(C)COc1ccc(-c2nc3c(O)cccc3[nH]2)cc1[N+](=O)[O-] [Example 7, 4-Hydroxy-2-(4-isobutoxy-3-nitrophenyl)-1H-benzimidazole] | 102 nM | –
